Measured values taken from US20100255580A1, “Differentiation of Human Embryonic Stem Cells” (LIFESCCAN, INC., priority 2007, published 2010).

Test system: human embryonic stem cells (H9, H7) on MATRIGEL
Assay: Real-time PCR of definitive endoderm markers, DE protocol on […] or fibronectin (feeder-free)
Type: cell-based
Details: for expression of definitive endoderm markers: with 50 ng/ml of AA, 20 ng/ml Wnt-3A or 100 nM GSK-3B inhibitor IX
Procedure: Real-time PCR amplification and quantitative analysis.
Final data were expressed relative to a calibrator sample.
Differentiation of embryonic stem cells to definitive endoderm was carried out as previously described in Nature Biotechnology 23, 1534-1541 (December 2005). […] In all subsequent examples unless otherwise noted, this treatment regimen will be referred to as the definite endoderm (DE) protocol. In parallel, H9, H7, or H1 cells cultured on MEF feeders were also exposed to the same DE protocol outlined above.
At day 5, the cultures were analyzed by FACS for CXCR4, E-cadherin, CD9, CD99, and N-cadherin (CD56) expression and by real time PCR for SOX-17, SOX-7, Alpha-fetal protein (AFP), CXCR4, Brychyury (Bry), gooscecoid (GSC), HNF-3 beta, and GATA4. AFP and SOX-7 are regarded as visceral endoderm markers while GATA4, HNF-3beta and SOX-17 represent definite endoderm markers and GSC, Bry, and CXCR4 represent markers of primitive streak.
In some of the cultures 20 ng/ml Wnt-3a (Catalog #1324-WN-002, R&D Systems, MN), 20 ng/ml Wnt-5a (Catalog #654-WN-010, R&D Systems, MN), 25 ng/ml Wnt-7a (Catalog #3008-WN-025, R&D Systems, MN), or 25 ng/ml Wnt-5b (Catalog #3006-WN-025, R&D Systems, MN) was added throughout the five day treatment. FIG. 24 depicts phase contrast images of H9P46 definitive endoderm culture in the presence of high concentration of (a) AA or (b) AA+20 ng/ml Wnt-3a. FIG. 25 depicts the expression of CXCR4 by FACS at day 5 for H7P44, and H9P46 lines cultured on […] (1:30 dilution) and exposed to the DE protocol+Wnt-3a (FIG. 25, panels b and d) and −Wnt-3a (FIG. 25, panels a and c).
Control cultures were not treated with Wnt-3a. FIG. 27, panel a depicts the expression of CXCR4 by FACS at day 5 in the absence of Wnt-3a, b) 10 ng/ml Wnt-3a, c) 20 ng/ml Wnt-3a and d) 50 ng/ml Wnt-3a. In the absence of Wnt-3a the expression of CXCR4 was very low. […] Real-time PCR results (FIG. 28, panel a) also confirm this finding.
In a separate study, H9 p52 cells were plated on 1:30 low growth factor […]™. For the first 2 days of the DE protocol a range of Wnt3A doses was used: 10 ng/ml, 5 ng/ml and 1 ng/ml. […] The number of cells at the end of the experiment is noted in FIG. 28, panel c.
In order to confirm that the effect of Wnt-3a was through the Wnt pathway, a GSK-3 inhibitor was used to activate the downstream targets of Wnt, such as beta catenin. […] FIG. 29, panel a depicts the expression of CXCR4 by FACS at day 5 in the absence of Wnt-3a or GSK-3B inhibitor, b) +20 ng/ml Wnt-3a, c) +1000 nM GSK-3B inhibitor IX, d) +500 nM GSK-3B inhibitor IX, e) +100 nM GSK-3B inhibitor IX, f) +10 nM GSK-3B inhibitor IX, g) +100 nM GSK-3B inhibitor IX for days 1-2, and h) +10 nM GSK-3B inhibitor IX for days 1-2.
FIG. 31 panels a-d is for H9P49 cells and panels e-f is for H1P46 cells.
Results are expressed as fold increase over untreated cells. […] Results are expressed as fold increase over untreated cells.
H9P55 cells were grown and differentiated on human fibronectin or regular growth factor […]™ (BD Biosciences). lml of DMEM/F12 (Invitrogen/GIBCO) containing 1 ug/ml of human fibronectin (R&D systems, MN) was added to each well of 6 well tissue culture treated dish. Alternatively, regular growth factor […]™ was diluted 1:10 in DMEM/F12 and 1 ml of diluted […]™ was added to each well of 6 well tissue culture treated dish. Cells were passed with collagenase. […] Real-time PCR results (FIG. 39) confirm that formation of definitive endoderm was equivalent on fibronectin and […]™ coated plates.
To determine if the addition of Wnt-3a was causing the increase in differentiation, an inhibitor of Wnt-3 signaling was added to the cultures. […] H9 cells were cultured on plates coated with Growth Factor Reduced […] at a 1:30 dilution. The plates were coated with […] for 1 hr at room temperature. […]

| Compound | expression of definitive endoderm markers (H9P49) | outcome of lower doses of activin A (H9P49, with Wnt-3a or GSK-3B inhibitor IX) | definitive endoderm markers (real-time PCR) (H7 and H9, low serum+AA+/−Wnt ligands, 5 days) | Wnt3a dose sufficient to reach optimal cell expansion and definitive endoderm differentiation (H9 p52, for 2 days) [ng/mL] |
| --- | --- | --- | --- | --- |
| O=C1Nc2cc(Br)ccc2/C1=C1/Nc2ccccc2/C1=N\O [GSK-3B inhibitor IX, reference compound] | robust expression | – | – | – |
| Activin A: a member of the TGFβ superfamily; R&D Systems; Group 2 = Activin A (100 ng/ml) | – | formation of extraembryonic endoderm | – | – |
| Wnt-3a | robust expression | – | significant upregulation | 10 |
